Columns and labels:
Format in all cases: functional, Homo sapiens
[1] = tested on: HL-60; experiment: Compound was evaluated for the amount of TNF-alpha produced by HL-60 cells in the presence of 12-O-tetradecanoylphorbol-13-acetate (TPA) at concentration 0.3 uM
[2] = tested on: HL-60; experiment: Compound was evaluated for the amount of TNF-alpha produced by HL-60 cells in the presence of Okadaic acid (OA) at concentration 0.3 uM
[3] = tested on: HL-60; experiment: Compound was evaluated for the amount of TNF-alpha produced by HL-60 cells in the presence of Okadaic acid (OA) at concentration 30 uM
[4] = tested on: HL-60; experiment: Compound was evaluated for the amount of TNF-alpha produced by HL-60 cells in the presence of 12-O-tetradecanoylphorbol-13-acetate (TPA) at concentration 30 uM

| SMILES | Production [1] | Production [2] | Production [3] | Production [4] |
| --- | --- | --- | --- | --- |
| C[C@@H](c1ccccc1)N1C(=O)c2c(F)c(F)c(F)c(F)c2C1=O | 143% | 70% | – | – |
| C[C@]1(N2C(=O)c3ccccc3C2=O)CCC(=O)NC1=O | – | – | 75% | 358% |
| C[C@H](c1ccccc1)N1C(=O)c2c(F)c(F)c(F)c(F)c2C1=O | 97% | 2% | – | – |
| C[C@H](C1CCCCC1)N1C(=O)c2c(F)c(F)c(F)c(F)c2C1=O | 98% | 10% | – | – |
| C[C@@H](c1cccc2ccccc12)N1C(=O)c2c(F)c(F)c(F)c(F)c2C1=O | 101% | 101% | – | – |
| C[C@H](c1cccc2ccccc12)N1C(=O)c2c(F)c(F)c(F)c(F)c2C1=O | 100% | 2% | – | – |
| C[C@@H](C1CCCCC1)N1C(=O)c2c(F)c(F)c(F)c(F)c2C1=O | 124% | 65% | – | – |
| C[C@@]1(N2C(=O)c3ccccc3C2=O)CCC(=O)NC1=O | – | – | 39% | 103% |
| O=C1CCC(N2C(=O)c3ccccc3C2=O)C(=O)N1 (stereo not drawn) [THALIDOMIDE] | – | – | 58% | 135% |

From ChEMBL document CHEMBL1129176, “Enantio-dependence of inducer-specific bidirectional regulation of tumor necrosis factor (TNF)-alpha production: Potent TNF- production inhibitors” (1996)
